Experimental data as given in patent publication US8999956B2, “N-[(het)arylalkyl)] pyrazole(thio)carboxamides and their heterosubstituted analogues” (Bayer Intellectual Property GmbH, priority 2010, dated 2015).
Like-named read-outs stand apart in the source and are kept apart here.

Tests used:
Alternaria solani = assay: In vivo preventive test on Alternaria solani (tomato); settings: 500 ppm of active ingredient, evaluated 7 days after inoculation
Procedure, shortened: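 Young tomato plants sprayed preventively with compound in DMF/alkylarylpolyglycolether emulsion diluted in water to the stated rate. Inoculation with aqueous Alternaria solani spore suspension one day after treatment.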

Pyrenophora teres = assay: In vivo preventive test on Pyrenophora teres (barley); settings: 500 ppm of active ingredient, evaluated 7-9 days after inoculation
Procedure, shortened: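 Compound formulated in N,N-dimethylformamide with alkylaryl polyglycol ether emulsifier and diluted in water, then sprayed on young barley plants at the stated application rate. Plants inoculated one day later with aqueous Pyrenophora teres spore suspension, testing preventive protection.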

Venturia inaequalis = assay: In vivo preventive test on Venturia inaequalis (apple scab); settings: 100 ppm of active ingredient, evaluated 10 days after inoculation
Protocol: (§1) Solvent: 24.5 parts by weight of acetone • 24.5 parts by weight of N,N-dimethylacetamide Emulsifier: 1 part by weight of alkylaryl polyglycol ether To produce a suitable preparation of active compound, 1 part by weight of active compound is mixed with the stated amounts of solvent and emulsifier, and the concentrate is diluted with water to the desired concentration. To test for preventive activity, young plants are sprayed with the preparation of active compound at the stated rate of application.

Uromyces appendiculatus = assay: In vivo preventive test on Uromyces appendiculatus (beans); settings: 100 ppm of active ingredient, evaluated 10 days after inoculation
Protocol: as §1

Botrytis cinerea = assay: In vivo preventive test on Botrytis cinerea (beans); settings: Table L, 500 ppm of active ingredient, lesion size 2 days after inoculation
Protocol: Solvent: 24.5 parts by weight of acetone • 24.5 parts by weight of N,N-dimethylacetamide
Emulsifier: 1 part by weight of alkylaryl polyglycol ether
To produce a suitable preparation of active compound, 1 part by weight of active compound is mixed with the stated amounts of solvent and emulsifier, and the concentrate is diluted with water to the desired concentration.
To test for preventive activity, young plants are sprayed with the preparation of active compound. After the spray coating has dried on, 2 small pieces of agar covered with growth of Botrytis cinerea are placed on each leaf. The inoculated plants are placed in a darkened chamber at 20° C. and a relative atmospheric humidity of 100%.
2 days after the inoculation, the size of the lesions on the leaves is evaluated. 0% means an efficacy which corresponds to that of the untreated control, while an efficacy of 100% means that no disease is observed.

Sphaerotheca fuliginea = assay: In vivo preventive test on Sphaerotheca fuliginea (cucumber); settings: 500 ppm of active ingredient, evaluated 7 days after inoculation
Procedure, shortened: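 Young cucumber plants sprayed with compound (in DMF with alkylarylpolyglycolether emulsifier, diluted in water) at the stated application rate. Inoculated one day later with aqueous Sphaerotheca fuliginea spore suspension. Plants then held in greenhouse at approximately 23° C and approximately 70% relative humidity.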

Leptosphaeria nodorum = assay: In vivo preventive test on Leptosphaeria nodorum (wheat); settings: 500 ppm of active ingredient, evaluated 7-9 days after inoculation
Protocol: as §1, with “Solvent: 49 parts by” for “Solvent: 24.5 parts by weight of acetone • 24.5 parts by”, “sprayed with a preparation of” for “sprayed with the preparation of”, “of application. One day after this treatment, the plants are inoculated with an aqueous spore suspension of Leptosphaeria nodorum.” for “of application.”

Puccinia triticina = assay: In vivo preventive test on Puccinia triticina (wheat); settings: Table K, 500 ppm of active ingredient, evaluated 8 days after inoculation
[1] = test system: aflatoxines produced by Aspergillus parasiticus; assay: microbe, parasite or virus in culture; format: cell-based
Aspergillus parasiticus = assay: microbe, parasite or virus in culture; format: cell-based
[2] = log P by HPLC on reversed-phase column (EEC Directive 79/831 Annex V.A8); format: physicochemical
Protocol: In table 1, the log P values were determined in accordance with EEC Directive 79/831 Annex V.A8 by HPLC (High Performance Liquid Chromatography) on a reversed-phase column (C18), using the method described below: Temperature: 40° C.; […]

Septoria tritici = assay: In vivo preventive test on Septoria tritici (wheat); settings: 500 ppm of active ingredient, evaluated 21 days after inoculation
Protocol: Solvent: 49 parts by weight of N,N-dimethylacetamide Emulsifier: 1 part by weight of alkylaryl polyglycol ether To produce a suitable preparation of active compound, 1 part by weight of active compound or active compound combination is mixed with the stated amounts of solvent and emulsifier, and the concentrate is diluted with water to the desired concentration. To test for preventive activity, young plants are sprayed with the preparation of active compound or active compound combination at the stated rate of application. After the spray coating has been dried, the plants are sprayed with a spore suspension of Septoria tritici.

[3] = test system: Blumeria graminis fsp. hordei; assay: In vivo preventive test on Blumeria graminis (barley); settings: 500 ppm of active ingredient, evaluated 7 days after inoculation
Protocol: Solvent: 49 parts by weight of N,N-dimethylacetamide Emulsifier: 1 part by weight of alkylaryl polyglycol ether To produce a suitable preparation of active compound, 1 part by weight of active compound or active compound combination is mixed with the stated amounts of solvent and emulsifier, and the concentrate is diluted with water to the desired concentration. To test for preventive activity, young plants are sprayed with the preparation of active compound or active compound combination at the stated rate of application. After the spray coating has been dried, the plants are dusted with spores of Blumeria graminis fsp. hordei.

Row | SMILES | Efficacy (Alternaria solani) [%] | Efficacy (Pyrenophora teres) [%] | Efficacy (Venturia inaequalis) [%] | Efficacy (Uromyces appendiculatus) [%] | Efficacy (Botrytis cinerea) [%] | Efficacy (Sphaerotheca fuliginea) [%] | Efficacy (Leptosphaeria nodorum) [%] | Efficacy (Puccinia triticina) [%] | % Inhibition of Aflatoxin at 50 μM ([1]; 50 µM) [%] | % Inhibition of fungal growth at 50 μM (Aspergillus parasiticus; 50 µM) [%] | logP [2] | % Inhibition of Aflatoxin at 50 μM [1] [%] | Efficacy (Septoria tritici) [%] | Efficacy [3] [%] | % Inhibition of fungal growth at 50 μM (Aspergillus parasiticus) [%]
1 | Cn1nc(C(F)F)c(C(=O)NCC2CCCC(C(F)(F)F)C2)c1Cl (mixture of isomers) [Example 378] | 100 | 100 | 100 | 100 | 96 |  |  |  |  |  |  |  |  |  | 
2 | CC(C)CC(C)C1CCCC1NC(=O)c1c(C(F)F)nn(C)c1Cl (single isomer, unassigned) [Example 312] | 95 | 100 | 99 | 100 |  | 90 | 95 | 100 | 100 | 99 | 4.40 isomer A |  |  |  | 
3 | CC(C)CC(C)C1CCCC1NC(=O)c1c(C(F)F)nn(C)c1Cl (single isomer, unassigned) [Example 313] | 80 | 100 |  | 88 |  |  |  |  | 99 | 82 | 4.46 isomer B |  |  |  | 
4 | CC(C)CC(C)C1CCCC1NC(=O)c1c(C(F)F)nn(C)c1Cl (single isomer, unassigned) [Example 314] | 95 | 100 | 98 | 85 |  | 90 | 80 |  |  |  | 4.47 isomer C |  |  |  | 
5 | CC(C)CC(C)C1CCCC1NC(=O)c1c(C(F)F)nn(C)c1F (single isomer, unassigned) [Example 316] | 90 | 100 | 100 | 100 |  | 98 | 80 | 100 |  | 100 | 4.19 isomer A | 100 |  |  | 
6 | CC(C)CC(C)C1CCCCC1NC(=O)c1c(C(F)F)nn(C)c1F (single isomer, unassigned) [Example 337] | 100 | 100 | 74 | 86 | 93 | 100 |  | 70 |  |  | 4.47 isomer A |  | 78 |  | 
7 | CC(N(C(=O)c1c(C(F)F)nn(C)c1F)C1CC1)C(C)(C)Cc1ccc(Cl)cc1Cl (stereo not shown) [Example 181] | 100 | 100 | 100 | 78 |  | 100 | 95 |  |  |  | 5.14 |  | 100 | 100 | 
8 | CCCCC1CCCC1NC(=O)c1c(C(F)F)nn(C)c1Cl (stereo not shown) [Example 307] | 100 | 100 | 100 | 100 |  | 83 |  | 80 |  |  | 3.83 | 100 |  |  | 92
9 | CC(C)CCC1CCCC1NC(=O)c1c(C(F)F)nn(C)c1F (stereo not shown) [Example 310] | 100 | 100 | 100 | 100 |  | 100 |  |  |  |  | 3.98 | 100 |  |  | 96
10 | Cn1nc(C(F)F)c(C(=O)NC2CCCC2CCC(C)(C)C)c1Cl (stereo not shown) [Example 320] | 100 | 95 | 100 | 99 |  | 100 |  | 70 |  |  | 4.49 | 99 |  |  | 82
